“Also recorded” adds a separate entry of the source.

The source of these data is US20240166687A1, “REGULATORY T CELL-INDUCING PEPTIDE AND COMPOSITION INCLUDING SAME FOR PREVENTING OR TREATING AUTOIMMUNE DISEASE” (IUCF-HYU (INDUSTRY-UNIVERSITY COOPERATION FOUNDATION …, priority 2021, published 2024).

The subject of assay [1] is Th17 cells differentiated from splenocytes isolated from mouse. In words: Analysis of effect under Th17 differentiation conditions (flow cytometry of IL-17A and Foxp3). The assay is classed as cell-based. To be noted: sample 2 μM; for effect of suppressing immune response (decrease of IL-17 and increase of Foxp3): flow cytometry 4 days later, comparator as named in the value (Th17/PBS control, K1, AP-K2). The source says:
Th17 cells are a subset of CD4 T cells. The Th17 cells are known to secrete a cytokine known as IL-17 and cause inflammation. This is the major cause of autoimmune disease. And, Treg cells (regulatory T cells) are known to suppress and regulate inflammation by expressing the transcription factor called Foxp3. Accordingly, since it is thought that the effect of preventing and treating autoimmune disease may be achieved by regulating inflammation by inhibiting Th17 cells (IL-17) and increasing Treg (Foxp3) cells, the effect of the peptides of the present disclosure was investigated.
Undifferentiated CD4 T cells (naive CD4 T cells) were isolated from splenocytes of 6- to 8-week-old C57BL/6 mice using a mouse undifferentiated CD4+ T cell (naive CD4 T cell) isolation kit (Miltenyi Biotec, Auburn, CA, USA) according to the manufacturer's protocols. For RNAseq, the undifferentiated CD4 T cells (naive CD4 T cells) from the Foxp3-GFP mice were purified, differentiated into Th17 cells and sorted into Foxp3^+ and Foxp3^− populations using a cell sorter (FACS Aria cell sorter BD Biosciences, Franklin Lakes, NJ, USA). The purified undifferentiated CD4 T cells (naive CD4 T cells) were activated with plate-bound anti-CD3 (2 or 5 μg/mL, 553057; BD Pharmingen, La Jolla, CA) and anti-CD28 (2 or 5 μg/mL, 553294; BD Pharmingen, La Jolla, CA) antibodies and differentiated by treating with the following cytokine cocktails in a 96-well plate for 3 or 4 days: Th0; recombinant human TGF-β(R&D Systems) 0.25 ng/mL. Th1; anti-IL-4 (11B11; 16-7041-85; eBioscience) 5 μg/mL, IL-2 (212-12; Peprotech, Rocky Hill, NJ) 50 U/mL, recombinant murine IL-12 (212-12; Peprotech) 2 ng/mL, recombinant human TGF-β (R&D Systems) for Th1 0.25 ng/mL. Th17; anti-IFN-γ (XMG1.2; 16-7311-85; eBioscience) 5 μg/mL, anti-IL-4 (11B11; 16-7041-85; eBioscience) 5 μg/mL, recombinant murine TGF-β (7666-MB, R&D Systems, Minneapolis, MN) 2 ng/mL, IL-6 (216-16; Peprotech) 30 ng/mL, IL-23 (1887-ML-101; R&D Systems) 20 ng/mL, IL-1β (401-ML-010; R&D Systems) 20 ng/mL, and IL-2 (Peprotech) 50 U/mL. Treg; IL-2 (Peprotech) 50 U/mL and TGF-β (R&D Systems) 0.5 ng/mL.
The cells were cotreated with the cytokine cocktails and the samples (2 μM). 4 days later, they were analyzed by flow cytometry using IL-17 and Foxp3 fluorescent antibodies. In some experiments, 5 μM PKC-η pseudosubstrate inhibitor (sc-3096; Santa Cruz) or 5 μM ERK inhibitor (UO126, 662005; Sigma) were also added.
For flow cytometric analysis of living cells only, dead cells were excluded using the Zombie Aqua™ fixable viability kit (Biolegend) before staining with antibodies at room temperature for 10 minutes. After washing, surface proteins of the differentiated Th1, Th17 and Treg cells were stained with monoclonal antibodies at 4° C. for 15 minutes. To determine intracellular cytokine levels, the cells were restimulated with a cell stimulation cocktail (plus protein transport inhibitors) (ThermoFisher) at 37° C. for 4 hours and then stained with surface marker antibodies. The cells were then fixed, permeabilized using a Foxp3/transcription factor staining buffer set (eBioscience) and stained with anti-mouse IFN-γ, anti-mouse IL-17 and anti-mouse Foxp3. The cells were analyzed using a FACS Canto II flow cytometer and the FlowJo software version 10.7.

Assay [2] relates to multiple sclerosis animal model. In words: Analysis of efficiency in multiple sclerosis (MS) animal model (MOG35-55/CFA + PTX). In kind it is in vivo, C57BL/6 mice. The following applies: for clinical symptoms (clinical score): 100 μg (5 mg/kg) intraperitoneally once a day from day 7 after PTX; for clinical symptoms (clinical score) / number of Treg cells (spinal cord) / number of infiltrated lymphocytes in the spinal cord: comparator as named in the value. The procedure:
8-week-old female C57BL/6 mice were purchased from Orient Bio (Daejeon, Korea). All animal experiments were conducted in compliance with the animal experiment operation regulations of the Institutional Animal Care and Use Committee of Hanyang University. The mice were acclimatized for 2 weeks before the experiment. The mice were raised in a breeding room maintained at temperature 22±2° C. and 40-60% humidity with free access to feed. The light and dark cycles were adjusted at 12-hour intervals. Multiple sclerosis was induced by subcutaneous immunization using a MOG35-55/CFA emulsion PTX kit (Hooke Labs, Lawrence, MA, USA) according to the manufacturer's protocol. The mice were anesthetized with isoflurane and MOG35-55/CFA was subcutaneously injected bilaterally, followed by intraperitoneal injection of PTX (pertussis toxin) 2 hours and 24 hours later. The mice were randomly assigned to different groups after MOG immunization. Because paralysis due to immune response begins on day 7 after the injection of PTX, 100 μg (5 mg/kg) of the samples according to the present disclosure were intraperitoneally injected to the groups once a day from day 7. Each group was monitored every day after inducing multiple sclerosis and clinical symptoms were recorded. The clinical symptoms were evaluated based on the scoring system described in Table 2. The higher clinical scores indicate severer symptoms. The mice were euthanized at the end of the experiments and lymphocytes were isolated from the spinal cords. The isolated spinal cords were treated at 37° C. with 1 mg/mL of DNase 1 (10104159001; Sigma-Aldrich) and 1 mg/mL of collagenase D (11088866001; Sigma-Aldrich) and incubated at 80 rpm on a shaker for 40 minutes. After the enzyme treatment, 500 mM EDTA was added and lymphocytes were isolated by Percoll (GE Healthcare, Little Chalfont, UK) density-gradient centrifugation. The isolated infiltrated lymphocytes were restimulated with a cell stimulation cocktail (plus protein transport inhibitors) (ThermoFisher) at 37° C. for 4 hours and stained with anti-mouse CD4. The cells were fixed, permeabilized using a Foxp3/transcription factor staining buffer set (eBioscience) and stained with anti-mouse IFN-γ, anti-mouse IL-17 or anti-mouse Foxp3. The cells were analyzed using a FACS Canto flow cytometer and the FlowJo software version 10.7.1. For histological analysis, paraffin blocks of the spinal cord tissues were deparaffinized and treated with luxol fast blue. For combination staining, hematoxylin and eosin were used (Dako). The cells infiltrated in the white matter region of the spinal cord tissues were counted using the Image J software version 2.0.0. The increased number of Th1 and Th17 immune cells in the spinal cord means more severe multiple sclerosis, and the increased number of Treg cells means that the function of preventing or treating autoimmune disease such as multiple sclerosis is improved as the tolerance to self-antigens is maintained and the excessive response by the immune system is prevented.

[3] abbreviates: 100 μg intraperitoneally once a day from day 7.

As to “RRRWCKRRRGGKMLKKRSKMLKKRSKMLKKRS (AP-K3)”, the “effect of inhibiting the IL-17 cytokine compared to the dNP2-ctCTLA-4 group” value in assay [1] (4 days) was “remarkably superior effect of inhibiting the IL-17 cytokine as compared to the dNP2-ctCTLA-4 group”. Moreover, the “effect of suppressing immune response (decrease of IL-17 and increase of Foxp3)” value in assay [1] is “significantly better effect of suppressing immune response than the PBS (control group)”. The “clinical symptoms (clinical score)” value in assay [2] is recorded as “significantly improved results for clinical symptoms as compared to the PBS (control group)”. Besides, in assay [2] (setting [3]), the “number of Treg cells (spinal cord)” value is reported as “significantly number of regulatory T cells (Treg) as compared to the PBS (control group)”; the “number of infiltrated lymphocytes in the spinal cord” value is “significantly smaller number of infiltrated lymphocytes in the spinal cord as compared to the PBS (control group), dNP2 and AP groups”.
For the molecule “KMLKKRS (K1) [Example K1, single K motif of CTLA4 without CPP, fatty acid or linker]”, the “effect of suppressing immune response (decrease of IL-17 and increase of Foxp3)” value in assay [1] is listed as “did not show significant difference from Th17 (control group)”. For the same molecule, the “effect in the multiple sclerosis animal model (overall)” value in assay [2] (100 μg intraperitoneally once a day from day 7 to day 18) is on record as “does not show significant effect on its own in the multiple sclerosis animal model”.
Regarding RRRWCKRRRGGKMLKKRSKMLKKRS (AP-K2), the “effect of inhibiting the IL-17 cytokine compared to the dNP2-ctCTLA-4 group” value in assay [1] (4 days) is “remarkably superior effect of inhibiting the IL-17 cytokine as compared to the dNP2-ctCTLA-4 group”. Moreover, the “reduction of IL-17 as compared to the control group” value in assay [1] (4 days, CD4+IL-17A+ T cells) was “reduced IL-17 to half or less”. The “increase of Foxp3 as compared to the control group” value in assay [1] (4 days, CD4+foxp3+ T cells) is at least 5 times. The “effect of suppressing immune response (decrease of IL-17 and increase of Foxp3)” value in assay [1] is “significantly better effect of suppressing immune response than the PBS (control group)”. Also, the “clinical symptoms (clinical score)” value in assay [2] is reported as “significantly improved results for clinical symptoms as compared to the PBS (control group); also recorded: significantly improved result for clinical symptoms as compared to the PBS group”. For the same molecule, in assay [2] (setting [3]), the “number of regulatory T cells (Treg) compared to dNP2-ctCTLA-4” value was “an increase comparable to that of dNP2-ctCTLA-4”; the “number of Treg cells (spinal cord)” value is “significantly number of regulatory T cells (Treg) as compared to the PBS (control group)”; the “number of infiltrated lymphocytes in the spinal cord” value is “significantly smaller number of infiltrated lymphocytes in the spinal cord as compared to the PBS (control group), dNP2 and AP groups; also recorded: significantly smaller number of infiltrated lymphocytes in the spinal cord than the PBS (control group)”. For the same molecule, the “number of infiltrated lymphocytes in the spinal cord, ranking among the groups” value in assay [2] (100 μg intraperitoneally once a day from day 7 to day 13, groups K2, AP-K2, Myr-K2, Myr-K3) is on record as “most superior effects”. In assay [2] (100 μg intraperitoneally once a day from day 7 to day 13, spinal cord lymphocytes), the “expression of IL-17 T cells, IFN-γ T cells and Foxp3 T cells compared to PBS” value was “inhibited expression of II-17 T cells and IFN-γ T cells and increase of Foxp3 T cells as compared to the PBS (control group)”.
As for “KMLKKRSGGGGSKMLKKRS (K2(G4S)) [K2 (G4S)]”, in assay [1], the “effect of suppressing immune response (decrease of IL-17 and increase of Foxp3)” value was “the activity of inhibiting immune cells is significantly superior”. The “clinical symptoms (clinical score)” value in assay [2] is “significantly remarkable superior result in clinical symptoms than the K1 group”. In assay [2] (setting [3]), the “number of Treg cells (spinal cord)” value is given as “larger number of Treg cells than the K1 group” and the “number of infiltrated lymphocytes in the spinal cord” value is “significantly number of infiltrated lymphocytes in the spinal cord as compared to the K1 group”.

B1: KIKKVKKKGRKGSKIKKVKKKGRKGGAMLAAASPLTTGVYVKMPPTEPECEKQFQPYFIPIN (peptide)
chain: KIKKVKKKGRKGSKIKKVKKKGRKGGAMLAAASPLTTGVYVKMPPTEPECEKQFQPYFIPIN
notes: dNP2-ctCTLA-4 variant, K motif residues replaced with alanine
As for B1, the “effect of suppressing immune response (decrease of IL-17 and increase of Foxp3)” value in assay [1] was “the function of the decrease of IL-17 and the increase of Foxp3 was lost”. In addition, the “clinical symptoms (clinical score)” value in assay [2] is recorded as “significantly lower clinical symptoms as compared to the PBS group”. For the same molecule, in assay [2] (setting [3]), the “number of Treg cells (spinal cord)” value is “smallest number of Treg cells” and the “number of infiltrated lymphocytes in the spinal cord” value is listed as “significantly larger number of infiltrated lymphocytes in the spinal cord as compared to the PBS group”. The “function of inhibiting myelin damage (histological analysis of the spinal cord)” value in assay [2] (100 μg intraperitoneally once a day from day 7 to day 14, luxol fast blue, H&E) is “the function of inhibiting myelin damage was lost”.
